Measurements from publication PMC9097471, “Development of Selective Phosphatidylinositol 5-Phosphate 4-Kinase γ Inhibitors with a Non-ATP-competitive, Allosteric Binding Mode” (Journal of Medicinal Chemistry, 2022).
pIC50: −log10 of the molar value.

Columns and labels:
PI5P4Kγ = tested on: PI5P4Kγ; parameters: method as in ref 30 (1), ref 23 (2); settings: 32P-ATP/PI5P incorporation; ref 30 (1), ref 23 (2); cited from earlier work
PI5P4Kα = tested on: PI5P4Kα; parameters: method as in ref 30 (a number printed in a supplementary file, which may have a reference list of its own: not looked up in the article's list); settings: 32P-ATP/PI5P incorporation; cited from earlier work
Choline Kinase alpha = Choline Kinase alpha (Homo sapiens, UniProt P35790); assay: Lipid kinase panel, ADP-Glo; assay type: biochemical
From the text: (§1) Kinase % activity remaining s.d.
(§2) Choline Kinase alpha 101.6 3.2

Choline Kinase beta = Choline Kinase beta (Homo sapiens, UniProt Q9Y259); assay: Lipid kinase panel, ADP-Glo; assay type: biochemical
Chain of Choline Kinase beta (Q9Y259 whole entry, species assumed): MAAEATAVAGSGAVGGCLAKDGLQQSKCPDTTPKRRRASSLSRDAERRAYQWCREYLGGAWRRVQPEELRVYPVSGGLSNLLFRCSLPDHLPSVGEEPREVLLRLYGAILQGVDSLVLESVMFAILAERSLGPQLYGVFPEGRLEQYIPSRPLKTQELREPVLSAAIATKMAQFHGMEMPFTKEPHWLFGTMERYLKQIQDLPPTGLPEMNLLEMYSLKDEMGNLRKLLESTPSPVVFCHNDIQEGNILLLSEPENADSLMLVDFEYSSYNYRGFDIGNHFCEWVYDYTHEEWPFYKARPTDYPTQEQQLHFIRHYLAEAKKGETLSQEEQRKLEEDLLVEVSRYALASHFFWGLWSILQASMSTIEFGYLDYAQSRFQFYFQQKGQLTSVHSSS
From the text: as §1, §2

DGK beta = DGK beta (Homo sapiens, UniProt Q9Y6T7); assay: Lipid kinase panel, ADP-Glo; assay type: biochemical
From the text: as §1, §2

DGK gamma = DGK gamma (Homo sapiens, UniProt P49619); assay: Lipid kinase panel, ADP-Glo; assay type: biochemical
From the text: as §1, §2

DGK zeta = DGK zeta (Homo sapiens, UniProt Q13574); assay: Lipid kinase panel, ADP-Glo; assay type: biochemical
Chain of DGK zeta (Q13574 whole entry, species assumed): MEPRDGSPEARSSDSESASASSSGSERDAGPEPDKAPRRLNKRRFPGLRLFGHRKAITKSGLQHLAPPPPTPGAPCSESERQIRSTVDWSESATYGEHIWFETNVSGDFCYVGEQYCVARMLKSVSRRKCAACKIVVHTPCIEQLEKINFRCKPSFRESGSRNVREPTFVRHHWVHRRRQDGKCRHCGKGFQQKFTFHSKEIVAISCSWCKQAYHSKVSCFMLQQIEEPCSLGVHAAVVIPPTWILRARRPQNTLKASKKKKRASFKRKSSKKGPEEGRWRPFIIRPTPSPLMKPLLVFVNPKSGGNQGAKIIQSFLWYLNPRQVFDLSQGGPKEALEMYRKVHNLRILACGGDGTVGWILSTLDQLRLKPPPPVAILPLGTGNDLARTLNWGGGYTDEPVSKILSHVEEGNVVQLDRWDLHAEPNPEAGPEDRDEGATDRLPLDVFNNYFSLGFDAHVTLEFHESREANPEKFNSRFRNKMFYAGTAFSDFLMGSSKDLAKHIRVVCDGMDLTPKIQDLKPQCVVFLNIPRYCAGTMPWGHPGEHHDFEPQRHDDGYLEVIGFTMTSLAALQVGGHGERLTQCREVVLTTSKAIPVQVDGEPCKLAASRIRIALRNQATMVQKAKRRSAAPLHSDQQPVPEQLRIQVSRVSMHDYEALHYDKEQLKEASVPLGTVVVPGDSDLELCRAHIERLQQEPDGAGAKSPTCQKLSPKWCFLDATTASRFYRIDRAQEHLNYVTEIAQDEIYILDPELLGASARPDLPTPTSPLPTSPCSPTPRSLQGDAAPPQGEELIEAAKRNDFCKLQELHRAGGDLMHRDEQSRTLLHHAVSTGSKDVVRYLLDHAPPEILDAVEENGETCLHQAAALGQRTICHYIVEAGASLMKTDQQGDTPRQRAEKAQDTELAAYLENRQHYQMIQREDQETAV
From the text: as §1, §2

PI3K beta = PI3K beta (Homo sapiens, UniProt P42338); assay: Lipid kinase panel, ADP-Glo; assay type: biochemical
From the text: as §1, §2

PI3K gamma = PI3K gamma (Homo sapiens, UniProt P48736); assay: Lipid kinase panel, ADP-Glo; assay type: biochemical
From the text: as §1, §2

PI3KA E545K +P85 = PI3KA E545K +P85 (Homo sapiens, UniProt P42336, E545K); assay: Lipid kinase panel, ADP-Glo; assay type: biochemical; settings: PI3KA E545K +P85, 10 μM
From the text: as §1, §2

PI3Ka E524K +P85 = assay: Lipid kinase panel, ADP-Glo; assay type: biochemical; settings: PI3Ka E524K +P85, 10 μM
From the text: as §1, §2

PI3Kalpha = PI3Kalpha (Homo sapiens, UniProt P42336); assay: Lipid kinase panel, ADP-Glo; assay type: biochemical
From the text: as §1, §2

PI4K2a = PI4K2a (Homo sapiens, UniProt Q9BTU6); assay: Lipid kinase panel, ADP-Glo; assay type: biochemical
Chain of PI4K2a (Q9BTU6 whole entry, species assumed): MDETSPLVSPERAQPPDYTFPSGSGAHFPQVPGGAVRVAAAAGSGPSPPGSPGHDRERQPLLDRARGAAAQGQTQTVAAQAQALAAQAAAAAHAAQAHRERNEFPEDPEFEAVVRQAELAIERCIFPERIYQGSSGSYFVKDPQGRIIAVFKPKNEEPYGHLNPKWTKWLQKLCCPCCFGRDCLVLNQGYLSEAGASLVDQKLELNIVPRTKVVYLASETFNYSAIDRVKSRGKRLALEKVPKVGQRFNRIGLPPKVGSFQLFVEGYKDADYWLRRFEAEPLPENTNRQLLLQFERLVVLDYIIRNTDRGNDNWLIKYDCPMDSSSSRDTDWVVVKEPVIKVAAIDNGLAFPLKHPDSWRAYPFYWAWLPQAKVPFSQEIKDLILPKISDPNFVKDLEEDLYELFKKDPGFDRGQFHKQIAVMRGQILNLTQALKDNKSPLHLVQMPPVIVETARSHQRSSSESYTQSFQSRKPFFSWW
From the text: as §1, §2

PIK4Ca = PIK4Ca (Homo sapiens, UniProt P42356); assay: Lipid kinase panel, ADP-Glo; assay type: biochemical
From the text: as §1, §2

PIP5K2a = PIP5K2a (Homo sapiens, UniProt P48426); assay: Lipid kinase panel, ADP-Glo; assay type: biochemical
Chain of PIP5K2a (P48426 whole entry, species assumed): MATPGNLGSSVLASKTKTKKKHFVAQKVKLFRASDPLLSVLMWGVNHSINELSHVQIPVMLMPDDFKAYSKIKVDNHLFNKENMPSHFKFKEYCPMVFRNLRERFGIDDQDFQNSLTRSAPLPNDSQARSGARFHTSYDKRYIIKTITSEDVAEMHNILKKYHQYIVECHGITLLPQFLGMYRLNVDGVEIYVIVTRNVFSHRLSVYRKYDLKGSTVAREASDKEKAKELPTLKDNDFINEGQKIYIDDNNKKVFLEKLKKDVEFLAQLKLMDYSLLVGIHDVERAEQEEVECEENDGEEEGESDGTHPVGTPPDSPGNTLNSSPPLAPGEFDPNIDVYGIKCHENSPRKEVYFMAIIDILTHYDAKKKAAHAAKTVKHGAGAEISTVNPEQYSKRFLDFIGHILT
From the text: as §1, §2

SPHK1 = SPHK1 (Homo sapiens, UniProt Q9NYA1); assay: Lipid kinase panel, ADP-Glo; assay type: biochemical; settings: SPHK1, 10 μM
Chain of SPHK1 (Q9NYA1 whole entry, species assumed): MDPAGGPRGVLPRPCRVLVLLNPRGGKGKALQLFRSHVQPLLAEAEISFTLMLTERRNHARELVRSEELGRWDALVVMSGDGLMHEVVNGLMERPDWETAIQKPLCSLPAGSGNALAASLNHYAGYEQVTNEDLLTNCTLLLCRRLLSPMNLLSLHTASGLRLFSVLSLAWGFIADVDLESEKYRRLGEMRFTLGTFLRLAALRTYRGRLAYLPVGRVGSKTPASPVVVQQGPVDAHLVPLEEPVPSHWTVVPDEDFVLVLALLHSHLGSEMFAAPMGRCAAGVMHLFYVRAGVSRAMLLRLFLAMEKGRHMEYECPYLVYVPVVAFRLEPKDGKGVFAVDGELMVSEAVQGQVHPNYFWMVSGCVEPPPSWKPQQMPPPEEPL
From the text: as §1, §2

SPHK2 = SPHK2 (Homo sapiens, UniProt Q9NRA0); assay: Lipid kinase panel, ADP-Glo; assay type: biochemical; settings: SPHK2, 10 μM
From the text: as §1, §2

MKK6 = MKK6 (Homo sapiens, UniProt P52564); assay: Kinase panel, radiometric 33P filter binding; settings: read-out: % activity remaining
JNK3 = JNK3 (Homo sapiens, UniProt P53779); assay: Kinase panel, radiometric 33P filter binding; settings: read-out: % activity remaining
Chain of JNK3 (P53779 whole entry): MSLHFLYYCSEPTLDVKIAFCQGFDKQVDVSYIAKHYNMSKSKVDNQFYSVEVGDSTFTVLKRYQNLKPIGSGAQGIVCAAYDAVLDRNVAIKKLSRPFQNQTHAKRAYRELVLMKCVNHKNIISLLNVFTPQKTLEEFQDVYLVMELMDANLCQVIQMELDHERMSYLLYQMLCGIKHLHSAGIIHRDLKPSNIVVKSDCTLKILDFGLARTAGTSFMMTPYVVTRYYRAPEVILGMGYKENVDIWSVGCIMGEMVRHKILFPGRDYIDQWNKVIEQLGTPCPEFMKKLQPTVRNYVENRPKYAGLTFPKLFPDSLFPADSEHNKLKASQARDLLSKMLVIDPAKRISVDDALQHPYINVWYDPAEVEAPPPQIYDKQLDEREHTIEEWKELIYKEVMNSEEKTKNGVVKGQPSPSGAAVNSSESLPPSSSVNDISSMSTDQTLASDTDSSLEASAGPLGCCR
From the text: (§3) filter binding assay using 33P-g-ATPat the MRC PPU International Centre for Kinase Profiling, University of

p38b MAPK = p38b MAPK (Homo sapiens, UniProt Q15759); assay: Kinase panel, radiometric 33P filter binding; settings: read-out: % activity remaining
Chain of p38b MAPK (Q15759 whole entry): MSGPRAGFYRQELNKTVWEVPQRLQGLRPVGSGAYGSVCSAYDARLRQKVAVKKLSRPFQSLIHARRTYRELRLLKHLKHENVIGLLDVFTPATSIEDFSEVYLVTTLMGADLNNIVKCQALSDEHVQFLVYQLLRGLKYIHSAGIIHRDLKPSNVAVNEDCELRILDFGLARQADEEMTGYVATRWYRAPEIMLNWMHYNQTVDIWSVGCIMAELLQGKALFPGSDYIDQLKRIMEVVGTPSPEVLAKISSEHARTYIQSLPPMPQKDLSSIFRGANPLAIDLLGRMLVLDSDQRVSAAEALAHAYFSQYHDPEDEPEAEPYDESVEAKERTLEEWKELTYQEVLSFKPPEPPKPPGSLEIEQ
From the text: as §3

RSK1 = RSK1 (Homo sapiens, UniProt Q15418); assay: Kinase panel, radiometric 33P filter binding; settings: read-out: % activity remaining
From the text: as §3

DAPK1 = DAPK1 (Homo sapiens, UniProt P53355); assay: Kinase panel, radiometric 33P filter binding; settings: read-out: % activity remaining
From the text: as §3

Aurora A = Aurora A (Homo sapiens, UniProt O14965); assay: Kinase panel, radiometric 33P filter binding; settings: read-out: % activity remaining
From the text: as §3

MARK1 = MARK1 (Homo sapiens, UniProt Q9P0L2); assay: Kinase panel, radiometric 33P filter binding; settings: read-out: % activity remaining
From the text: as §3

NUAK1 = NUAK1 (Homo sapiens, UniProt O60285); assay: Kinase panel, radiometric 33P filter binding; settings: read-out: % activity remaining
From the text: as §3

SIK2 = SIK2 (Homo sapiens, UniProt Q9H0K1); assay: Kinase panel, radiometric 33P filter binding; settings: read-out: % activity remaining
From the text: as §3

TTBK2 = TTBK2 (Homo sapiens, UniProt Q6IQ55); assay: Kinase panel, radiometric 33P filter binding; settings: read-out: % activity remaining
From the text: as §3

NEK6 = NEK6 (Homo sapiens, UniProt Q9HC98); assay: Kinase panel, radiometric 33P filter binding; settings: read-out: % activity remaining
Chain of NEK6 (Q9HC98 whole entry): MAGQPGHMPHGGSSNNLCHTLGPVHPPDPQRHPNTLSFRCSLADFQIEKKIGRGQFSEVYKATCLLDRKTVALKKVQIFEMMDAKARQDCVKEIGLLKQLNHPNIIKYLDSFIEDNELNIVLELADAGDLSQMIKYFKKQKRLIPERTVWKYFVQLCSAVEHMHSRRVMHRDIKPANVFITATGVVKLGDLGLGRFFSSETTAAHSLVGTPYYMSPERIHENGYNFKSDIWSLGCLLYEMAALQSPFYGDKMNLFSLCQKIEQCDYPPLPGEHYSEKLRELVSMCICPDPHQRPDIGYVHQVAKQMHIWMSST
From the text: as §3

PAK4 = PAK4 (Homo sapiens, UniProt O96013); assay: Kinase panel, radiometric 33P filter binding; settings: read-out: % activity remaining
From the text: as §3

PAK5 = PAK5 (Homo sapiens, UniProt Q9P286); assay: Kinase panel, radiometric 33P filter binding; settings: read-out: % activity remaining
Chain of PAK5 (Q9P286 whole entry): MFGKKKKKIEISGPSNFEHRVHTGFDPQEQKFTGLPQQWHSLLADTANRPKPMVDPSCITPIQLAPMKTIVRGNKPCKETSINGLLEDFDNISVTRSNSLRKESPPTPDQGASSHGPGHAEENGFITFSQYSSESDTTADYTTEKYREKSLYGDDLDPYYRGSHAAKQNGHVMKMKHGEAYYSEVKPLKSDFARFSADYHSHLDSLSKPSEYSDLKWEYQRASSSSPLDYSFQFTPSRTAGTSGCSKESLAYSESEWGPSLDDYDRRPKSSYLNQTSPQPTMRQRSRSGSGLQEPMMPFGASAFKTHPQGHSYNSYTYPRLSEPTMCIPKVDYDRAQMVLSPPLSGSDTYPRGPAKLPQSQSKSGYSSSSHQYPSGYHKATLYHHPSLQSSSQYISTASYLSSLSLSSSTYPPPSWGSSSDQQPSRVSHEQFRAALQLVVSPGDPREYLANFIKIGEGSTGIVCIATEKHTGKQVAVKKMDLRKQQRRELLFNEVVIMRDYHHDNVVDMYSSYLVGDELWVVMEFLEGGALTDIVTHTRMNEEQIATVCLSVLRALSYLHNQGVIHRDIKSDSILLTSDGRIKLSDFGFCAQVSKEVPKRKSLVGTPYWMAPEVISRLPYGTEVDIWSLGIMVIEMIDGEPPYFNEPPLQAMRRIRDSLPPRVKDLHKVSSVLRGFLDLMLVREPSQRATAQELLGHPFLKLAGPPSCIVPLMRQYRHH

MST4 = MST4 (Homo sapiens, UniProt Q9P289); assay: Kinase panel, radiometric 33P filter binding; settings: read-out: % activity remaining
GCK = GCK (Homo sapiens, UniProt Q12851); assay: Kinase panel, radiometric 33P filter binding; settings: read-out: % activity remaining
From the text: as §3

RIPK2 = RIPK2 (Homo sapiens, UniProt O43353); assay: Kinase panel, radiometric 33P filter binding; settings: read-out: % activity remaining
ULK2 = ULK2 (Homo sapiens, UniProt Q8IYT8); assay: Kinase panel, radiometric 33P filter binding; settings: read-out: % activity remaining
From the text: as §3

Src = Src (Homo sapiens, UniProt P12931); assay: Kinase panel, radiometric 33P filter binding; settings: read-out: % activity remaining
Chain of Src (P12931 whole entry): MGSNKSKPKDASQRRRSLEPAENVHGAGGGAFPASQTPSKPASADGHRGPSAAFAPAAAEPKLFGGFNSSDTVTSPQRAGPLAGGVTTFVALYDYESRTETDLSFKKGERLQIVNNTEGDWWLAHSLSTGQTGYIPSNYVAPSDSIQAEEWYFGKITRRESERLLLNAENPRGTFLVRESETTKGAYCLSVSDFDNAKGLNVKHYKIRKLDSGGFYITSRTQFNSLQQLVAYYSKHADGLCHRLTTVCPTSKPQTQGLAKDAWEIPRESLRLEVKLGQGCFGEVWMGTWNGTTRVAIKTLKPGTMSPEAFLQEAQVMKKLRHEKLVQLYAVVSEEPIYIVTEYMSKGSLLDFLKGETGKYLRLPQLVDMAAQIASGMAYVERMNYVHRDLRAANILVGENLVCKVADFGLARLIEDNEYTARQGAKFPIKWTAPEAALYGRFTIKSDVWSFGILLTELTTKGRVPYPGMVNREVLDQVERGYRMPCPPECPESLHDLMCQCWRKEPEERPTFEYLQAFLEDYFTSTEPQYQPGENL

Lck = Lck (Homo sapiens, UniProt P06239); assay: Kinase panel, radiometric 33P filter binding; settings: read-out: % activity remaining
TrkA = TrkA (Homo sapiens, UniProt P04629); assay: Kinase panel, radiometric 33P filter binding; settings: read-out: % activity remaining
From the text: as §3

VEG-FR = VEG-FR (Homo sapiens, UniProt P17948); assay: Kinase panel, radiometric 33P filter binding; settings: read-out: % activity remaining
From the text: as §3

For `FC(F)(F)c1ccccc1-c1nc(NCc2cccs2)c2ccccc2n1` [Compound 1, NIH-12848, reference compound], the pIC50 (PI5P4Kγ) is listed as 5.52 to 5.70 and the pIC50 (PI5P4Kα) is listed as under 4.00.

With `CC(C)c1ccccc1-c1nc(NCc2ccccn2)c2c(ccn2C)n1` [Compound 40] the remaining activity at 10 µM (Choline Kinase alpha) was 102%, the remaining activity at 10 µM (Choline Kinase beta) was 97.3% and the remaining activity at 10 µM (DGK beta) was 102%. The remaining activity at 10 µM (DGK gamma) was 99.4%, the remaining activity at 10 µM (DGK zeta) was 106% and the remaining activity at 10 µM (PI3K beta) was 111%. The remaining activity at 10 µM (PI3K gamma) was 103%, the remaining activity at 10 µM (PI3KA E545K +P85) was 91.7% and the “% activity remaining” value (PI3Ka E524K +P85) was 102.0%. For the same molecule, the remaining activity at 10 µM (PI3Kalpha) was 91.4%, the remaining activity at 10 µM (PI4K2a) was 93.5% and the remaining activity at 10 µM (PIK4Ca) was 81.1%. The remaining activity at 10 µM (PIP5K2a) was 100%, the remaining activity at 10 µM (SPHK1) was 91.8% and the remaining activity at 10 µM (SPHK2) was 83.8%. The remaining activity at 10 µM (MKK6) was 90%, the remaining activity at 10 µM (JNK3) was 97% and the remaining activity at 10 µM (p38b MAPK) was 94%. The remaining activity at 10 µM (RSK1) was 99%, the remaining activity at 10 µM (DAPK1) was 105% and the remaining activity at 10 µM (Aurora A) was 94%. It also gave a remaining activity at 10 µM (MARK1) of 88%, a remaining activity at 10 µM (NUAK1) of 88% and a remaining activity at 10 µM (SIK2) of 100%. The remaining activity at 10 µM (TTBK2) was 114%, the remaining activity at 10 µM (NEK6) was 120% and the remaining activity at 10 µM (PAK4) was 95%. For the same molecule, the remaining activity at 10 µM (PAK5) was 120%, the remaining activity at 10 µM (MST4) was 110% and the remaining activity at 10 µM (GCK) was 93%. The remaining activity at 10 µM (RIPK2) was 92%, the remaining activity at 10 µM (ULK2) was 91% and the remaining activity at 10 µM (Src) was 135%. For the same molecule, the remaining activity at 10 µM (Lck) was 102%, the remaining activity at 10 µM (TrkA) was 100% and the remaining activity at 10 µM (VEG-FR) was 125%.
